Earlier results, collected in patent publication US20050250804A1, “Pharmaceutical gel formulations” (Glenmark Pharmaceuticals Limited, priority 2004, published 2005).

Columns and labels:
human subjects = details: repeated insult patch test, 50 human subjects, total of 15 applications; manufacturer's brochure
[1] = test system: Interleukin-2, interferon gamma, Interleukin-4 and Interleukin-10 cytokine synthesis in human T cells

Structure (SMILES)	primary dermal irritation / sensitization (human subjects)	PII (rabbit skin)	skin irritation (rabbit skin)	concentration inhibiting IL-2, interferon gamma (Th1-type), IL-4 and IL-10 (Th2-type) cytokine synthesis [1]
CN1CCCC1=O [Pharmasolve®, N-methyl-2-pyrrolidone]	neither a primary dermal irritant nor a sensitizer	0.5	practically nonirritating	
CC[C@@H]1/C=C(\C)C[C@H](C)C[C@H](OC)[C@H]2O[C@@](O)(C(=O)C(=O)N3CCCC[C@H]3C(=O)O[C@H](/C(C)=C/[C@@H]3CC[C@H](Cl)[C@H](OC)C3)[C@H](C)[C@@H](O)CC1=O)[C@H](C)C[C@@H]2OC [pimecrolimus, (1R,9S,12S,13R,14S,17R,18E,21 S,23S,24R,25S,27R)-12-[(1E)-2-{(1R,3R,4S)-4-chloro-3-methoxycyclohexyl}-1-methylvinyl]-17-ethyl-1,14-dihydroxy-23,25-dimethoxy-13,19,21,27-tetramethyl-11,28-dioxa-4-aza-tricyclo[22.3.1.04,9]octacos-18-ene-2,3,10,16-tetraone]				nanomolar concentrations
